Assay results reported in patent US4279897A, “(Alkoxycarbonyl)(alkyl)aminosulfenyl derivatives of phosphoramidothioate esters” (priority 1979, dated 1981).

System: house flies, Musca domestica
Test: Topical insecticidal activity against house flies (percent mortality 24 h after application, LD50)
Type: in vivo
Conditions: read-out: House fly LD50
Experimental: Representative compounds of the invention were tested for insecticidal activity against house flies, Musca domestica. Stock 1% concentrated solutions of each of the test compounds were made in acetone, and such solutions diluted with acetone to a concentration of 0.001-0.1%. House flies were treated topically on the notum by 1 μl of each of the diluted acetone solutions and percent mortality was counted 24 hours after application.

SMILES | LD50 [mg/kg]
CCN(SNP(=O)(OC)SC)C(=O)OC (centres unmarked) [Compound 1, O,S-dimethyl N-(N'-methoxycarbonyl-N'-ethylaminosulfenyl)phosphoramidothioate] | 2.8
CCCCCCOC(=O)N(CC)SNP(=O)(OC)SC (centres unmarked) [Compound 2] | 3.8
CCCN(SNP(=O)(OC)SC)C(=O)OC (centres unmarked) [Compound 3] | 1.6
CCCN(SNP(=O)(OC)SC)C(=O)OCC (centres unmarked) [Compound 4] | 2
CCCOC(=O)N(CCC)SNP(=O)(OC)SC (centres unmarked) [Compound 5] | 1.9
CCOC(=O)N(SNP(=O)(OC)SC)C(C)C (centres unmarked) [Compound 6, O,S-Dimethyl N-[N'-(ethoxycarbonyl)-N'-(isopropylaminosulfenyl)]phosphoramidothioate] | 1.9
COP(=O)(NSN(C(=O)OC(C)C)C(C)C)SC (centres unmarked) [Compound 7, O,S-Dimethyl N-[N'-(isopropoxycarbonyl)-N'-(isopropylaminosulfenyl)]phosphoramidothioate] | 2.7
CCCOC(=O)N(SNP(=O)(OC)SC)C(C)C (centres unmarked) [Compound 8, O,S-dimethyl N-(N'-propoxycarbonyl-N'-isopropylaminosulfenyl)phosphoramidothioate] | 2.5
CCOC(=O)N(SNP(=O)(OC)SC)C(C)(C)C (centres unmarked) [Compound 9, O,S-Dimethyl N-[N'-(ethoxycarbonyl)-N'-(tert.-butylaminosulfenyl)]phosphoramidothioate] | 2.5
CCCOC(=O)N(SNP(=O)(OC)SC)C(C)(C)C (centres unmarked) [Compound 10] | 1.6

System: insects
Test: not given
Conditions: in vivo; cited from earlier work

SMILES | insecticidal activity / toxicity to insects (background)
COP(N)(=O)SC (centres unmarked) [Methamidophos, O,S-dimethyl phosphoramidothiote] | high toxicity to both insects and mammals
COP(=O)(NC(C)=O)SC (centres unmarked) [acephate] | high insecticidal activity

System: mammals
Test: not given
Conditions: in vivo; cited from earlier work

SMILES | mammalian toxicity (background)
COP(N)(=O)SC (centres unmarked) [Methamidophos, O,S-dimethyl phosphoramidothiote] | high toxicity to both insects and mammals
COP(=O)(NC(C)=O)SC (centres unmarked) [acephate] | relatively low mammalian toxicity

System: not listed separately
Test: Water solubility
Type: physicochemical
Conditions: not given

SMILES | water solubility
COP(N)(=O)SC (centres unmarked) [Methamidophos, O,S-dimethyl phosphoramidothiote] | freely soluble in water

System: not listed separately
Test: Mammalian toxicity, oral, Swiss white mice (LD50)
Type: in vivo
Conditions: mouse, in vivo; oral, corn oil carrier, Swiss white mice
Experimental: (§1) Mammalian toxicity was determined against Swiss white mice. The test compound was applied orally using corn oil as the carrier.

SMILES | LD50 [mg/kg]
CCN(SNP(=O)(OC)SC)C(=O)OC (centres unmarked) [Compound 1, O,S-dimethyl N-(N'-methoxycarbonyl-N'-ethylaminosulfenyl)phosphoramidothioate] | 30
CCCCCCOC(=O)N(CC)SNP(=O)(OC)SC (centres unmarked) [Compound 2] | 34
CCCOC(=O)N(CCC)SNP(=O)(OC)SC (centres unmarked) [Compound 5] | 36
CCOC(=O)N(SNP(=O)(OC)SC)C(C)C (centres unmarked) [Compound 6, O,S-Dimethyl N-[N'-(ethoxycarbonyl)-N'-(isopropylaminosulfenyl)]phosphoramidothioate] | 50
CCCOC(=O)N(SNP(=O)(OC)SC)C(C)C (centres unmarked) [Compound 8, O,S-dimethyl N-(N'-propoxycarbonyl-N'-isopropylaminosulfenyl)phosphoramidothioate] | 50
CCOC(=O)N(SNP(=O)(OC)SC)C(C)(C)C (centres unmarked) [Compound 9, O,S-Dimethyl N-[N'-(ethoxycarbonyl)-N'-(tert.-butylaminosulfenyl)]phosphoramidothioate] | 50
CCCOC(=O)N(SNP(=O)(OC)SC)C(C)(C)C (centres unmarked) [Compound 10] | 50

System: Swiss white mice
Test: Mammalian toxicity, oral, Swiss white mice (LD50)
Type: in vivo
Conditions: mouse oral, from Table II
Experimental: as §1

SMILES | mammalian toxicity compared with methamidophos
CCOC(=O)N(SNP(=O)(OC)SC)C(C)C (centres unmarked) [Compound 6, O,S-Dimethyl N-[N'-(ethoxycarbonyl)-N'-(isopropylaminosulfenyl)]phosphoramidothioate] | lower
CCCOC(=O)N(SNP(=O)(OC)SC)C(C)C (centres unmarked) [Compound 8, O,S-dimethyl N-(N'-propoxycarbonyl-N'-isopropylaminosulfenyl)phosphoramidothioate] | lower
CCOC(=O)N(SNP(=O)(OC)SC)C(C)(C)C (centres unmarked) [Compound 9, O,S-Dimethyl N-[N'-(ethoxycarbonyl)-N'-(tert.-butylaminosulfenyl)]phosphoramidothioate] | lower
CCCOC(=O)N(SNP(=O)(OC)SC)C(C)(C)C (centres unmarked) [Compound 10] | lower
